Source: US9119881B2, “Method of synergistically enhancing the therapeutic efficacy and safety of medication through a combination therapy” (priority 2010, dated 2015)
Marks after values point to notes of the source that are not given here. Where no end group is shown, it is not given here. The star is where a group is joined. Myristoyl = CCCCCCCCCCCCCC(=O)*

Columns and labels:
PPAR γ = molecular target: T1, PPAR γ (Mus musculus, UniProt P37238); assay: PPAR γ reporter activity assay in 3T3-L1 preadipocytes; format: cell-based; conditions: 6 hrs, 2′5′-dideoxyadenosine 10 μM, PKAi 30 μM; for ABA-induced PPAR γ activation, effect of inhibitor: ABA 10 μM; for Ros-induced PPAR γ activation, effect of inhibitor: Ros 1 μM
T1 construct: expressed in transfected cells; host or cells: 3T3-L1 pre-adipocytes
T1 sequence (P37238 31-505 limits assumed): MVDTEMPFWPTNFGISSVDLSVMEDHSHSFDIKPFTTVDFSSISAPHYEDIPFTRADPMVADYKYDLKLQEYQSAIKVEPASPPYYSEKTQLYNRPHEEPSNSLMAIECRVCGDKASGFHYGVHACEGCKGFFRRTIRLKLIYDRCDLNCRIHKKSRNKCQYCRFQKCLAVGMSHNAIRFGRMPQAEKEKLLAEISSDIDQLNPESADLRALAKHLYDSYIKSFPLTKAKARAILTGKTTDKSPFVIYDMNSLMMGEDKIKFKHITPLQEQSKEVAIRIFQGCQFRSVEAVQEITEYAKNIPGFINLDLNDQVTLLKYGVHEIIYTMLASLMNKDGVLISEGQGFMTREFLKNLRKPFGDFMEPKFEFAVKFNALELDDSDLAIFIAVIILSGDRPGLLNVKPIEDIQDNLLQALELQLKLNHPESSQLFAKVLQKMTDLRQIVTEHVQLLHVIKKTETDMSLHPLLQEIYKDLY
Experimental: For 3T3-L1 preadipocytes cells were treated for 6-h with vehicle (DMSO) or Ros (1 μM) with ABA (10 μM), the cAMP-inhibitor 2′5′ dideoxyadenosine (dideoxy, 10 μM), or 14-22 myristolated PKA inhibitor fragment (PKAi, 30 μM). […] Luciferase activity was normalized to pRL activity in the cell extracts and relative luciferase activity was calculated a ratio of the activity in the treatment wells to control wells. Data are represented as mean±standard error.
A pCMX.PPAR γ expression plasmid and a pTKPPRE3x luciferase reporter plasmid driven by the PPRE-containing Acyl-CoA oxidase promoter (kindly provided by Dr. R M. Evans, The Salk Institute, San Diego, Calif.) were purified using Qiagen's Maxi kit (Valencia, Calif.). […] Cells were co-transfected in the […] with 1.5 μg plasmid DNA and 25 ng of pRL reporter control using F-2 transfection reagents (Targeting Systems, Santee, Calif.) according to the manufacturer's protocol. […] Cells were then treated in replicates of 8 with vehicle (DMSO), rosiglitazone (1 or 10 μM; Cayman Chemicals, Arm Arbor, Mich.), or ABA (10 μM; Sigma) with and without 2′5′ dideoxyadenosine (10 μM; Sigma) and 14-22 myristolated PKA inhibitor fragment (PKAi, 30 μM; Sigma). […] Luciferase activity, normalized to pRL activity in the cell extracts was determined by using the Dual Luciferase II reporter assay system (Promega, Madison, Wis.) using a Modulus 96-well luminometer (Turner Biosystems, Sunnyvale, Calif.). All values were normalized to control wells to calculate relative luciferase activity.

[1] = as stated in U.S. Pat. No. 6,515,132; cited from earlier work
[2] = Dietary ABA and rosiglitazone in obese db/db mice: body and organ weights; format: in vivo; conditions: for Final body weight / Ab. WAT % Body Weight / Liver % Body Weight / Sc. WAT % Body Weight: with or without ABA 100 mg/kg diet; for Final body weight: 60 days
Experimental: Twelve-fifteen week-old BKS.Cg-+Lepr^db/+Lepr^db/OlaHsd (db/db) mice were housed at the animal facilities at Virginia Polytechnic Institute and State University in a room maintained at 75° F., with a 12:12 h light-dark cycle starting from 6:00 AM. All experimental procedures were approved by the Institutional Animal Care and Use Committee of Virginia Polytechnic Institute and State University and met or exceeded requirements of the Public Health Service, National Institutes of Health and the Animal Welfare Act. […] Louis, Mo.) for 60 days. Mice were weighed and fasting (12 h) blood glucose levels were taken weekly. Blood glucose levels were assessed with an ACCU-CHEK® Glucometer (Roche, Indianapolis, Ind.). […] On day 60 mice were sacrificed by CO2 narcosis with secondary thoracotomy. Abdominal WAT, inguinal subcutaneous WAT, and liver were then excised and weighed. Abdominal and subcutaneous WAT were then digested and fractionated.

[3] = db/db mice, Roshi diet (70 mg/kg diet), day 60
[4] = db/db mice, Roslo diet (10 mg/kg diet), day 60

C[C@H]1O[C@@H](n2cnc3c(N)ncnc32)C[C@@H]1O [2′5′-dideoxyadenosine]
ABA-induced PPAR γ activation, effect of inhibitor (PPAR γ): prevented | Ros-induced PPAR γ activation, effect of inhibitor (PPAR γ): no effect

O=C1NC(=O)C(Cc2ccc3c(c2)CC[C@H](Cc2ccccc2)O3)S1 (stereo partly shown) [Englitazone]
current minimum effective drug dose [1]: 200 μmol/kg diet

CN(CCOc1ccc(CC2SC(=O)NC2=O)cc1)c1ccccn1 (stereo not shown) [rosiglitazone]
edema in the interscapular region ([2]; db/db mice fed Ros^hi (70 mg/kg diet)): significant edema | Final body weight ([2]; db/db mice, Roshi diet (70 mg/kg diet)): 64.4 ± 2.4^d g | Ab. WAT % Body Weight [2, 3]: 4.6 ± 0.61^a % Body Weight | Liver % Body Weight [2, 3]: 6.7 ± 2.3^a % Body Weight | Sc. WAT % Body Weight [2, 3]: 3.2 ± 0.43 % Body Weight | Final body weight ([2]; db/db mice, Roslo diet (10 mg/kg diet)): 56.4 ± 2.4^bc g | Ab. WAT % Body Weight [2, 4]: 6.7 ± 0.61^bc % Body Weight | Liver % Body Weight [2, 4]: 9.2 ± 0.51^b % Body Weight | Sc. WAT % Body Weight [2, 4]: 2.4 ± 0.43 % Body Weight | liver weights (in words) ([2]; db/db mice, day 60, low dose Ros, ABA 100 mg/kg diet): significantly increased | body weights of the mice (in words) ([2]; db/db mice, both low- and high-dose rosiglitazone, 60-day dietary intervention): significantly increased

PKAi: 14-22 myristoylated PKA inhibitor fragment (Myristoyl-SGRTGRRNA; UniProt P61925 14-22, looked up, fragment)
ABA-induced PPAR γ activation, effect of inhibitor (PPAR γ): prevented | Ros-induced PPAR γ activation, effect of inhibitor (PPAR γ): no effect
